The source of these data is PubChem BioAssay AID1745844 (Carcinogenic Potency Database (CPDB), 2022).

SMILES strings stand for the structures. Calls of active or inactive are those of the source. The rule behind the calls is not given here.

This series concerns rodent lifetime carcinogenesis bioassay, tumor incidence TD50. Briefly: chronic cancer bioassays in animals – CPDB, compiled studies (AID 1745844).

A word on the TD50: it is the dose at which the toxic effect under study appears in half of the subjects.

For the molecule `CCN(C#N)N=O`, the TD50 was 3.17 mg/kg/day (rat, strain MRC-Wistar, females, in drinking water, site: any site (literature study), lesion: several types, types named in the paper, dosed 52 weeks, study length 90 weeks); 2.91 mg/kg/day (rat, strain MRC-Wistar, females, in drinking water, site: respiratory system, lesion: one or several types, types not named, dosed 52 weeks, study length 90 weeks); 4.99 mg/kg/day (rat, strain MRC-Wistar, males, in drinking water, site: respiratory system, lesion: one or several types, types not named, dosed 52 weeks, study length 90 weeks).

With `O=S1(=O)CCCO1`, the TD50 by setting is: (rat, strain Charles River CD (Sprague-Dawley), females, by gavage, site: all sites, lesion: granulocytic leukemia, dosed 46 weeks, study length 60 weeks) 18.6 mg/kg/day; (rat, strain Charles River CD (Sprague-Dawley), females, by gavage, site: cerebellum, lesion: malignant glioma, dosed 46 weeks, study length 60 weeks) 7.2 mg/kg/day; (rat, strain Charles River CD (Sprague-Dawley), females, by gavage, site: cerebrum, lesion: malignant glioma, dosed 46 weeks, study length 60 weeks) 4.06 mg/kg/day; (rat, strain Charles River CD (Sprague-Dawley), females, by gavage, site: mammary gland, lesion: adenocarcinoma, dosed 46 weeks, study length 60 weeks) 4.13 mg/kg/day; (rat, strain Charles River CD (Sprague-Dawley), females, by gavage, site: small intestine, lesion: adenocarcinoma, dosed 46 weeks, study length 60 weeks) 31.7 mg/kg/day; (rat, strain Charles River CD (Sprague-Dawley), males, by gavage, site: all sites, lesion: granulocytic leukemia, dosed 46 weeks, study length 60 weeks) 23.5 mg/kg/day. Also, the TD50 was 4.75 mg/kg/day (rat, strain Charles River CD (Sprague-Dawley), males, by gavage, site: cerebellum, lesion: malignant glioma, dosed 46 weeks, study length 60 weeks); 3.64 mg/kg/day (rat, strain Charles River CD (Sprague-Dawley), males, by gavage, site: cerebrum, lesion: malignant glioma, dosed 46 weeks, study length 60 weeks); 15.4 mg/kg/day (rat, strain Charles River CD (Sprague-Dawley), males, by gavage, site: small intestine, lesion: adenocarcinoma, dosed 46 weeks, study length 60 weeks).

Take `C[C@H]1CCCC(=O)CCC/C=C/c2cc(O)cc(O)c2C(=O)O1`: the TD50 was 17.9 mg/kg/day (mouse, strain B6C3F1, females, in feed, site: any site (literature study), lesion: several types, types named in the paper, dosed 104 weeks, study length 105 weeks); 22 mg/kg/day (mouse, strain B6C3F1, females, in feed, site: liver + pituitary gland, lesion: hepatocellular adenoma + hepatocellular carcinoma + adenoma, NOS + carcinoma, dosed 104 weeks, study length 105 weeks); 38.8 mg/kg/day (mouse, strain B6C3F1, females, in feed, site: liver, lesion: hepatocellular adenoma + hepatocellular carcinoma + neoplastic nodule, dosed 104 weeks, study length 105 weeks); 38.8 mg/kg/day (mouse, strain B6C3F1, females, in feed, site: liver, lesion: hepatocellular adenoma + hepatocellular carcinoma, dosed 104 weeks, study length 105 weeks); 50.1 mg/kg/day (mouse, strain B6C3F1, females, in feed, site: liver, lesion: hepatocellular adenoma, dosed 104 weeks, study length 105 weeks); 32.3 mg/kg/day (mouse, strain B6C3F1, females, in feed, site: pituitary gland, lesion: adenoma, NOS + carcinoma, dosed 104 weeks, study length 105 weeks). Besides, the TD50 (mouse, strain B6C3F1, females, in feed, site: pituitary gland, lesion: adenoma, NOS, dosed 104 weeks, study length 105 weeks) is 37.4 mg/kg/day; the TD50 (mouse, strain B6C3F1, males, in feed, site: pituitary gland, lesion: adenoma + carcinoma, dosed 104 weeks, study length 105 weeks) was 49.1 mg/kg/day; the TD50 (mouse, strain B6C3F1, males, in feed, site: pituitary gland, lesion: adenoma, dosed 104 weeks, study length 105 weeks) was 53.3 mg/kg/day; the TD50 (rat, strain Fischer 344, females, in feed, site: any site (literature study), lesion: several types, types named in the paper, dosed 104 weeks, study length 104 weeks) is 80.9 mg/kg/day (inactive); the TD50 (rat, strain Fischer 344, females, in feed, site: liver, lesion: hepatocellular adenoma + hepatocellular carcinoma + neoplastic nodule, dosed 104 weeks, study length 104 weeks) was 33.5 mg/kg/day; the TD50 (rat, strain Fischer 344, males, in feed, site: any site (literature study), lesion: several types, types named in the paper, dosed 104 weeks, study length 104 weeks) was 16.2 mg/kg/day (inactive). Further, the TD50 (rat, strain Fischer 344, males, in feed, site: liver, lesion: hepatocellular adenoma + hepatocellular carcinoma + neoplastic nodule, dosed 104 weeks, study length 104 weeks) came out at 950 mg/kg/day.

For the molecule `CCCCCCCCCc1ccc(OCCO)cc1`, the TD50 (mouse, strain B6C3F1, females, in feed, site: liver, lesion: hepatocellular adenoma, dosed 104 weeks, study length 104 weeks) is 8670 mg/kg/day (inactive). For the same molecule, the carcinogen call reads like this: (mouse, strain B6C3F1, females, in feed, site: liver, lesion: hepatocellular carcinoma, dosed 104 weeks, study length 104 weeks) “negative (inactive)”; (rat, strain F344/DuCrj, females, in feed, site: liver, lesion: hepatocellular adenoma, dosed 104 weeks, study length 104 weeks) “negative (inactive)”; (rat, strain F344/DuCrj, females, in feed, site: liver, lesion: one or several types, types not named, dosed 52 weeks, study length 52 weeks) “negative (inactive)”.
